This note sets out measurements from patent US11548868B2, “Heterocyclic compounds, compositions comprising heterocyclic compound, and methods of use thereof” (JS INNOPHARM (SHANGHAI) LTD, priority 2017, dated 2023).

Structures can show the parent of a compound that is named as a salt.

For this experiment, the target named is T1, TDO2 in A172 cancer cells (Homo sapiens, UniProt P48775).
T1 construct: endogenous in cells; host or cells: A172 cancer cells
T1 sequence (P48775 whole entry): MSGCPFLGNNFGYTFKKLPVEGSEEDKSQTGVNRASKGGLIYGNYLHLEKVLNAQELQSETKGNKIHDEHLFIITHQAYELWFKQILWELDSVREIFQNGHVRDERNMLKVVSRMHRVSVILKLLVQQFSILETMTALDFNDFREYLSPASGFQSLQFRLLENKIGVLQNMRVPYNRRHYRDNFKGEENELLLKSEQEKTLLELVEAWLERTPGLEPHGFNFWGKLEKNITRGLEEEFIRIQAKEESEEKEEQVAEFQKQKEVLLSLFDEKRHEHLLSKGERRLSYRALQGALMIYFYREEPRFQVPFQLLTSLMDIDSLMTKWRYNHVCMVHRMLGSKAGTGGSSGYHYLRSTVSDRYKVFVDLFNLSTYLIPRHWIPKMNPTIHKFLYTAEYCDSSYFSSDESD
In words: TDO2 Cellular Assay (kynurenine production in A172 cancer cells). The format is cell-based. The note with it: L-Trp 1 mM, 24 hours incubation, kynurenine at 490 nm. As for the experimental part: A172 cancer cells (3×10^4 per well) in 85 μL DMEM medium containing 10% FBS were seeded in a 96-well plate and incubated at 95% humidity and 5% CO2 at 37° C. for overnight. On the next day, L-Trp solution (10 μL, 1 mM final concentration) and serial dilutions of the test compounds and DMEM medium resulting in a total final volume of 100 μL each well. The test compounds were dissolved in DMSO and successively diluted with pH7.5 butter (with final DMSO concentration of 0.25%) resulting in final concentrations of the test compounds ranging from 0 to 25 μM (0, 2.5, 7.5, 25, 75, 250, 750, 2500, 7500, & 25000 nM). After 24 hours of incubation, 70 uL of the supernatant per well was transferred to a new 96 well plate. 8 μL of trichloroacetic acid (6.1 N) was mixed into each well and incubated at 50° C. for 30 min to hydrolyze N-formylkynurenine to kynurenine. The reaction mixture was then centrifuged for 10 min at 2500 RPM to remove sediments. 50 μL of the supernatant per well was transferred to another 96 well plate and mixed with 50 μL of 2% (w/v) p-dimethylaminobenzaldehyde in acetic acid. The yellow color derived from kynurenine was measured at 490 nm using a microplate reader. Percent inhibition of the test compounds was determined by measuring the decrease in kynurenine as compared to the control of DMSO vehicle, which was calculated by formula of (WC−WT)/WC, where WC is the mean absorbance of the control well minus blank well; WT is the mean absorbance of the test well minus the blank well. Data was analyzed by GraphPad Prism 5 and the IC50 values were obtained by non-linear regression.
The IC50 values of for Compounds disclosed are listed in Table 2, A′: ≤0.5 μM; B′: >0.5 μM and ≤1 μM; C′: >1.0 μM and ≤5 uM; and D′: >5 μM.
The term IC50 denotes the concentration at which inhibition is half-maximal. Compound `CCS(=O)(=O)N[C@H]1[C@@H]2C[C@@](O)(c3cc(Cl)cc4[nH]ncc34)C[C@@H]21` [Example 71, N-((1R,3r,5S,6r)-3-(6-chloro-1H-indazol-4-yl)-3-hydroxybicyclo[3.1.0]hexan-6-yl)ethanesulfonamide] yielded an IC50 of at most 500 nM.

Consider `CC(=O)N1C[C@@H]2CN(c3c(C(F)(F)F)ccn4cncc34)C[C@@H]2C1(C)C` (racemic) [Example 58, Racemic-1-((3aS,6aR)-1,1-dimethyl-5-(7-(trifluoromethyl)imidazo[1,5-a]pyridin-8-yl)hexahydropyrrolo[3,4-c]pyrrol-2(1H)-yl)ethanone], for which the IC50 was above 5000 nM.

Turning to `CCC(=O)N[C@H]1[C@@H]2C[C@@](O)(c3cc(Cl)cc4[nH]ncc34)C[C@@H]21` [Example 82, N-((1R,3r,5S,6r)-3-(6-chloro-1H-indazol-4-yl)-3-hydroxybicyclo[3.1.0]hexan-6-yl)propionamide], the IC50 is at most 500 nM.

`O=C(C1CCOC1)N1C[C@@H]2C[C@@](O)(c3cc(Cl)cc4[nH]ncc34)C[C@@H]2C1` (stereo partly drawn) [Example 68, ((3aR,5r,6aS)-5-(6-chloro-1H-indazol-4-yl)-5-hydroxyhexahydrocyclopenta[c]pyrrol-2(1H)-yl)(tetrahydrofuran-3-yl)methanone]: the IC50 was at most 500 nM.

Compound `COC(=O)N1C[C@@H]2C[C@@](O)(c3cc(Cl)cc4[nH]ncc34)C[C@@H]2C1` [Example 67, (3aR,5r,6aS)-methyl 5-(6-chloro-1H-indazol-4-yl)-5-hydroxyhexahydrocyclopenta[c]pyrrole-2(1H)-carboxylate] displayed an IC50 of at most 500 nM.

Regarding `CC(C)OC(=O)N[C@H]1[C@@H]2C[C@@](O)(c3cc(Cl)cc4[nH]ncc34)C[C@@H]21` [Example 86, isopropyl ((1R,3r,5S,6r)-3-(6-chloro-1H-indazol-4-yl)-3-hydroxybicyclo[3.1.0]hexan-6-yl)carbamate], the IC50 is at most 500 nM.

Compound `N#Cc1ccc(C(=O)N2C[C@@H]3CN(c4cc(Cl)cc5[nH]ncc45)C[C@@H]3C2)cc1` [Example 34, 4-((3aR,6aS)-5-(6-chloro-1H-indazol-4-yl)octahydropyrrolo[3,4-c]pyrrole-2-carbonyl)benzonitrile] yielded an IC50 above 5000 nM.

Take `CC1(C)C2CN(c3cc(Cl)cc4[nH]ncc34)CC2CN1C(=O)C1CC1` (stereo not drawn) [Example 29, (5-(6-chloro-1H-indazol-4-yl)-1,1-dimethylhexahydropyrrolo[3,4-c]pyrrol-2(1H)-yl)(cyclopropyl)methanone]: the IC50 is 500 to 1000 nM.

Regarding `O=C(C1CCC1)N1C[C@@H]2C[C@@](O)(c3cc(Cl)cc4[nH]ncc34)C[C@@H]2C1` [Example 60, ((3aR,5r,6aS)-5-(6-chloro-1H-indazol-4-yl)-5-hydroxyhexahydrocyclopenta[c]pyrrol-2(1H)-yl)(cyclobutyl)methanone], the IC50 is at most 500 nM.

`N#Cc1ccc(S(=O)(=O)N2C[C@H]3CN(c4cc(Cl)cc5[nH]ncc45)C[C@H]3C2)cc1` [Example 33, 4-(((3aR,6aS)-5-(6-chloro-1H-indazol-4-yl)hexahydropyrrolo[3,4-c]pyrrol-2(1H)-yl)sulfonyl)benzonitrile] displayed an IC50 above 5000 nM.

Regarding `CC1(C)[C@H]2CN(c3cc(Cl)cc4[nH]ncc34)C[C@H]2CN1C(N)=O` (racemic) [Example 31, Racemic-(3aS,6aR)-5-(6-chloro-1H-indazol-4-yl)-1,1-dimethylhexahydropyrrolo[3,4-c]pyrrole-2(1H)-carboxamide], the IC50 was at most 500 nM.

`O=C(C1CCCCC1)N1C[C@@H]2C[C@@](O)(c3cc(Cl)cc4[nH]ncc34)C[C@@H]2C1` [Example 62, ((3aR,5r,6aS)-5-(6-chloro-1H-indazol-4-yl)-5-hydroxyhexahydrocyclopenta[c]pyrrol-2(1H)-yl)(cyclohexyl)methanone] had an IC50 of at most 500 nM.

For the compound `CC1(C)[C@H]2CN(c3cc(Cl)cn4cncc34)C[C@H]2CN1S(C)(=O)=O` (racemic) [Example 49, Racemic-6-chloro-8-((3aR,6aS)-4,4-dimethyl-5-(methylsulfonyl)hexahydropyrrolo[3,4-c]pyrrol-2(1H)-yl)imidazo[1,5-a]pyridine], the IC50 lay in the range of 1000 to 5000 nM.

For the compound `CCOC(=O)N[C@H]1[C@@H]2C[C@@](O)(c3cc(Cl)cc4[nH]ncc34)C[C@@H]21` [Example 81, ethyl ((1R,3r,5S,6r)-3-(6-chloro-1H-indazol-4-yl)-3-hydroxybicyclo[3.1.0]hexan-6-yl)carbamate], the IC50 is at most 500 nM.

With `O=C(N[C@H]1[C@@H]2C[C@@](O)(c3cc(Cl)cc4[nH]ncc34)C[C@@H]21)C1CCCCC1` [Example 85, N-((1R,3r,5S,6r)-3-(6-chloro-1H-indazol-4-yl)-3-hydroxybicyclo[3.1.0]hexan-6-yl)cyclohexanecarboxamide], the IC50 was at most 500 nM.

As for `O=C(N[C@H]1[C@@H]2C[C@@](O)(c3cc(Cl)cc4[nH]ncc34)C[C@@H]21)C1CCOC1` (stereo partly drawn) [Example 72, N-((1R,3r,5S,6r)-3-(6-chloro-1H-indazol-4-yl)-3-hydroxybicyclo[3.1.0]hexan-6-yl)tetrahydrofuran-3-carboxamide], the IC50 is at most 500 nM.

Regarding `O[C@@]1(c2cc(Cl)cc3[nH]ncc23)C[C@H]2CCC[C@H]2C1` [Example 30, (2r,3aR,6aS)-2-(6-chloro-1H-indazol-4-yl)octahydropentalen-2-ol], the IC50 is at most 500 nM.

In turn, `CC(C)C(=O)N[C@H]1[C@@H]2C[C@@](O)(c3cc(Cl)cc4[nH]ncc34)C[C@@H]21` [Example 92, N-((1R,3r,5S,6r)-3-(6-chloro-1H-indazol-4-yl)-3-hydroxybicyclo[3.1.0]hexan-6-yl)isobutyramide] returned an IC50 of at most 500 nM.

Compound `NCC(=O)N[C@H]1[C@@H]2C[C@@](O)(c3cc(Cl)cc4[nH]ncc34)C[C@@H]21` [Example 103, 2-amino-N-((1R,3r,5S,6r)-3-(6-chloro-1H-indazol-4-yl)-3-hydroxybicyclo[3.1.0]hexan-6-yl)acetamide hydrochloride] came in with an IC50 of 1000 to 5000 nM.

The compound `CS(=O)(=O)N1C[C@@H]2CC(c3cc(Cl)cc4[nH]ncc34)=C[C@@H]2C1` (racemic) [Example 5, Racemic-6-chloro-4-((3aR,6aS)-2-(methylsulfonyl)-1,2,3,3a,4,6a-hexahydrocyclopenta[c]pyrrol-5-yl)-1H-indazole] showed an IC50 of at most 500 nM.

`CC1(C)C2CN(c3cc(Cl)cc4[nH]ncc34)CC2CN1S(C)(=O)=O` (racemic) [Example 1, 6-chloro-4-(4,4-dimethyl-5-(methylsulfonyl)hexahydropyrrolo[3,4-c]pyrrol-2(1H)-yl)-1H-indazole] yielded an IC50 of at most 500 nM.

As to `O=C(N[C@H]1[C@@H]2C[C@@](O)(c3cc(Cl)cc4[nH]ncc34)C[C@@H]21)C1CCC1` [Example 84, N-((1R,3r,5S,6r)-3-(6-chloro-1H-indazol-4-yl)-3-hydroxybicyclo[3.1.0]hexan-6-yl)cyclobutanecarboxamide], the IC50 is at most 500 nM.

Turning to `CC(C)OC(=O)N1C[C@@H]2C[C@@](O)(c3cc(Cl)cc4[nH]ncc34)C[C@@H]2C1` [Example 61, (3aR,5r,6aS)-isopropyl 5-(6-chloro-1H-indazol-4-yl)-5-hydroxyhexahydrocyclopenta[c]pyrrole-2(1H)-carboxylate], the IC50 is at most 500 nM.

On to `O=C(N[C@H]1[C@@H]2C[C@@](O)(c3cc(Cl)cc4[nH]ncc34)C[C@@H]21)C1CCCC1` [Example 79, N-((1R,3r,5S,6r)-3-(6-chloro-1H-indazol-4-yl)-3-hydroxybicyclo[3.1.0]hexan-6-yl)cyclopentanecarboxamide], for which the IC50 was at most 500 nM.

The compound `O=C(C1CCOCC1)N1C[C@@H]2C[C@@](O)(c3cc(Cl)cc4[nH]ncc34)C[C@@H]2C1` [Example 88, ((3aR,5r,6aS)-5-(6-chloro-1H-indazol-4-yl)-5-hydroxyhexahydrocyclopenta[c]pyrrol-2(1H)-yl)(tetrahydro-2H-pyran-4-yl)methanone] registered an IC50 of at most 500 nM.

The compound `O=S(=O)(N[C@H]1[C@@H]2C[C@@](O)(c3cc(Cl)cc4[nH]ncc34)C[C@@H]21)C1CC1` [Example 73, N-((1R,3r,5S,6r)-3-(6-chloro-1H-indazol-4-yl)-3-hydroxybicyclo[3.1.0]hexan-6-yl)cyclopropanesulfonamide] came in with an IC50 of at most 500 nM.

Compound `O=C(N[C@H]1[C@@H]2C[C@@](O)(c3cc(Cl)cc4[nH]ncc34)C[C@@H]21)C1CCCO1` (stereo partly drawn) [Example 75, N-((1R,3r,5S,6r)-3-(6-chloro-1H-indazol-4-yl)-3-hydroxybicyclo[3.1.0]hexan-6-yl)tetrahydrofuran-2-carboxamide] gave an IC50 of at most 500 nM.
